Columns and labels:
Format in all cases: cell-based
BT549 cells = assay: crystal violet (CV) proliferation assay, BT549; conditions: Homo sapiens, BT-549, BT549 (PKCβ1^high, Rb^regative) 2000 cells
Experimental: (§1) Cell proliferation rates were determined using crystal violet assays. One thousand cells per well were plated in 96 well tissue culture plates and treated the following day with a bifunctional compound or control for 7 days in replicates of 8. Cells were fixed with 25% glutaraldehyde for 10 minutes with shaking, washed 5 times with distilled water, stained with a 1% crystal violet solution (solubilized in 25% methanol) for 10 minutes, washed again 5 times and allowed to dry. De-staining was performed using […] sodium citrate in 50% ethanol followed by quantification using a 96 well spectrophotometer set at an absorbance of 550 nm.

KURAMOCHI cells = assay: crystal violet (CV) proliferation assay, KURAMOCHI; conditions: KURAMOSHI (PKCβ1^low) 1000 cells/well; read-out: Approximate IC50
Experimental: as §1
(§2) Based on the potent anti-proliferative activity of ENDX-PROTACs TC-Pr-006, TC-Pr-007, TC-Pr -008, and TC-Pr -009 in TNBC cells, the efficacy of these compounds for inhibiting the growth of ovarian cancer cells was tested. This analysis utilized KURAMOCHI cells, which represent the high-grade serous subtype (the most malignant form that accounts for 70% of all ovarian cancers and associates with poor clinical outcome) and MDAH-2774 cells, which represent endometrioid ovarian cancer and accounts for 20% of all ovarian cancer. PKCβ1 was confirmed to be expressed in both ovarian cancer cell line models, with MDAH-2774 cells expressing higher amounts of PKCβ1 compared to KURAMOCHI cells (FIG. 5A). […]

MDAMB231 cells = assay: crystal violet (CV) proliferation assay, MDAMB231; conditions: Homo sapiens, MDA-MB-231, MDAMB231 (PKCβ1^high, Rb^positive) 2000 cells
Experimental: as §1

MDAH-2774 cells = assay: crystal violet (CV) proliferation assay, MDAH-2774; conditions: Homo sapiens; MDAH-2774 (PKCβ1^high) 1000 cells/well; read-out: Approximate IC50
Experimental: as §1, §2

MDAMB436 cells = assay: crystal violet (CV) proliferation assay, MDAMB436; conditions: Homo sapiens, MDA-MB-436, MDAMB436 (PKCβ1^low, Rb^negative) 2000 cells
Experimental: as §1

IC50 (BT549 cells): > 5 µM | IC50 (MDAMB231 cells): > 5 µM | IC50 (MDAMB436 cells): > 5 µM
Compound: CC/C(=C(\c1ccc(O)cc1)c1ccc(OCCNC)cc1)c1ccccc1 [ENDX, endoxifen, reference compound]
IC50 (KURAMOCHI cells): > 10 µM | IC50 (MDAH-2774 cells): > 10 µM

From patent publication EP4817688A2, “DEGRADING PKCß1 TO TREAT CANCER” (Mayo Foundation for Medical Education and Research, priority 2020, dated 2022)
